Test results taken from BindingDB's records for PubMed 10215672 (Taisho Pharmaceutical, 1999).
Several values for one entry are separate records, joined by “and”; a condition that tells them apart may be missing. Equal values may be shown once.

Key:
[1] = target: T1, Corticotropin-releasing factor receptor 1 (Rattus norvegicus, UniProt P35353)
T1 sequence (P35353 whole entry): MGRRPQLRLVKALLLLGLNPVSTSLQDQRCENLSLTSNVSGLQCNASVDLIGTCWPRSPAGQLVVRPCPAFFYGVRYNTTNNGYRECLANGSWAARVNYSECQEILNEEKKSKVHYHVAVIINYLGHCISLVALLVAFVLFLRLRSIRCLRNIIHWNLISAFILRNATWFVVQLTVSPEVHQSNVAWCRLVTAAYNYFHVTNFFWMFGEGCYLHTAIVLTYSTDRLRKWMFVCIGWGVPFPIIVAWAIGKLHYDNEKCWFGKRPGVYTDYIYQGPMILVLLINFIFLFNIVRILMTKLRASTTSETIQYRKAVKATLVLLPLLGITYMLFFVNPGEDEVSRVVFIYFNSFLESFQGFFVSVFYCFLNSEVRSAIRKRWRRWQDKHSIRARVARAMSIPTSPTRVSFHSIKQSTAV

[2] = target: Corticotropin-releasing factor receptor 2 (Rattus norvegicus, UniProt P47866)
Sequence of Corticotropin-releasing factor receptor 2 (P47866 whole entry): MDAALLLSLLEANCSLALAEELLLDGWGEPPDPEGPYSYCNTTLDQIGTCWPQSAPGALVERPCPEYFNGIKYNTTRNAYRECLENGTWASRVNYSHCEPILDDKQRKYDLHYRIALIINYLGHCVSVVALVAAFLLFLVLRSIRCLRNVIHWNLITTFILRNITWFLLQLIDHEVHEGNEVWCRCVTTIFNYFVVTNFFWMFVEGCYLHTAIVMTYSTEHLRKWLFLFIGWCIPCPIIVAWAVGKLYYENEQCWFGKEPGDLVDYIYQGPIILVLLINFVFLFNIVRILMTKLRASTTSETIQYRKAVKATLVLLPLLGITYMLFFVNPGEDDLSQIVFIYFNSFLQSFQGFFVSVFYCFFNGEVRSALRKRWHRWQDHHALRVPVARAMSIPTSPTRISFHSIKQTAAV

Row | SMILES | Ki [1] | Ki [2] [nM]
1 | CCCCN(CC)c1nc(C)nc2c1c(C)cn2-c1c(C)cc(C)cc1C | 1.8 nM | > 10000
2 | COCCN(CCOC)c1nc(C)nc2c1nnn2-c1ccc(C(C)C)cc1Br | 14.8 nM and 20.7 nM | > 10000
3 | CCN(c1nc(C)cc(N2CCC=C(c3cccc(F)c3)C2)n1)c1ccc(CC(C)C)cc1Br [CRA1001] | 22.3 nM and 18.6 nM | > 10000
